Laboratory results taken from US5001142A, “1-substituted-2-(3-amino-1-propynyl)pyrrolidine derivatives” (American Cyanamid Company, priority 1989, dated 1991).
Where a name gives a salt, the structure may show the parent alone.

Experiments:
[1] = target: muscarinic cholinergic receptor; test: [^3 H] Quinuclidinyl Benzilate (^3 H-QNB) Binding Assay; details: rat cerebral cortex, ^3 H-QNB 0.25 nM, 25° C., 120 minutes, pH 7.4
[2] = target: muscarinic cholinergic receptor; test: [^3 H]-Cis-methyldioxolane (^3 H-CD) Binding Assay (High Affinity); details: rat cerebral cortex, ^3 H-CD 1.0 nM, 25° C., 120 minutes, pH 7.4, high affinity agonist conformation
aged monkey = details: aged monkeys; cited from earlier work
SDAT patients = details: compared to the anticholinesterase inhibitor physostigmine; cited from earlier work
muscarinic sites = details: cited from earlier work
presynaptic cholinergic = details: should disinhibit the release of endogenous acetylcholine; cited from earlier work
postsynaptic cholinergic = details: should mimic the effects of acetylcholine; cited from earlier work

For `CS(=O)(=O)N1CCC[C@H]1C#CCN1CCCC1` [(S)-1-(Methylsulfonyl)-2-[3-(1-pyrrolidinyl)-1propynyl]pyrrolidine, hydrochloride], which IC50 ([1]; hydrochloride) is on record?
The IC50 was 47 µM.

What about the IC50 ([2]; hydrochloride) of the same molecule?
The IC50 was 8.08 µM.

Which IC50 [1] does the source give for `C(#C[C@H]1CCCN1)CN1CCCC1` [(R)-1-[3-(2-Pyrrolidinyl)-2-propynyl]pyrrolidine] here?
Its IC50 is 3.1 µM.

What about the IC50 [2] of the same molecule?
Its IC50 is 0.514 µM.

What does the source list for `CS(=O)(=O)N1CCC[C@H]1C#CCN1CCCC1` [(S)-1-(Methylsulfonyl)-2-[3-(1-pyrrolidinyl]-1-propynyl]pyrrolidine]?
IC50 [1]: 43 µM; IC50 [2]: 6.78 µM

Which IC50 [1] does the source give for `CC(C)(C)OC(=O)N1CCC[C@H]1C#CCN1CCCC1` [(S)-2-[3-(1-Pyrrolidinyl)-1-propynyl]1-pyrrolidine-carboxylic acid, 1,1-dimethylethyl ester] here?
The IC50 was 4.2 µM.

What about the IC50 [2] of the same molecule?
Its IC50 is 0.247 µM.

What does the source list for `O=CN1CCC[C@H]1C#CCN1CCCC1` [(S)-2-[3-(1-Pyrrolidinyl)-1-propynyl]-1-pyrrolidinecarboxaldehyde]?
IC50 [1]: 65 µM; IC50 [2]: 5.24 µM

For `O=C(N1CCC[C@H]1C#CCN1CCCC1)C(F)(F)F` [(S)-2-[3-(1-Pyrrolidinyl)-1-propynyl]1-trifluoroacetyl) pyrrolidine, hydrochloride], which IC50 ([1]; hydrochloride) is on record?
Its IC50 is 16 µM.

What about the IC50 ([2]; hydrochloride) of the same molecule?
Its IC50 is 3.83 µM.

With `CC(=O)N1CCC[C@H]1C#CCN1CCCC1` [(S)-1-Acetyl-2-[3-(1-pyrrolidinyl)-1-propynly]-pyrrolidine, hydrochloride] as the molecule, how does the IC50 ([1]; hydrochloride) read?
The IC50 was 73 µM.

And the IC50 ([2]; hydrochloride)?
Its IC50 is 3.26 µM.

Which results are given for `CC(=O)N1CCC[C@H]1C#CCN1CCCC1` [(S)-1-Acetyl-2-[3-(1-pyrrolidinyl)-1-propynyl]pyrrolidine]?
IC50 [1]: 76 µM; IC50 [2]: 2.71 µM

With `O=CN1CCC[C@@H]1C#CCN1CCCC1` [(R)-2-(3-(1-Pyrrolidinyl)-1-propynyl]-1-pyrrolidine-carboxaldehyde] as the molecule, how does the IC50 [1] read?
The IC50 was 34 µM.

And the IC50 [2]?
The IC50 was 3.58 µM.

For `O=C(N1CCC[C@H]1C#CCN1CCCC1)C(F)(F)F` [(S)-2-[3-(1-Pyrrolidinyl)-1-propynyl]-1-(trifluoroacetyl)pyrrolidine], which IC50 [1] is on record?
Its IC50 is 18 µM.

What about the IC50 [2] of the same molecule?
The IC50 was 5.47 µM.

Which improvement in performance (aged monkey) does the source give for `O=C1CCCN1CC#CCN1CCCC1` [oxotremorine] here?
The improvement in performance was “significant improvement in performance”.

Which IC50 ([1]; hydrochloride) does the source give for `O=CN1CCC[C@H]1C#CCN1CCCC1` [(S)-2-[3-(1-Pyrrolidinyl)-1-propynyl]1-pyrrolidine-carboxaldehyde, hydrochloride] here?
Its IC50 is 88 µM.

And the IC50 ([2]; hydrochloride)?
Its IC50 is 11.1 µM.

What does the source list for `CS(=O)(=O)N1CCC[C@@H]1C#CCN1CCCC1` [(R)-1-(Methylsulfonyl)-2-[3-(1-pyrrolidinyl)-1-propynyl]pyrrolidine, hydrochloride]?
IC50 ([1]; hydrochloride): 25 µM; IC50 ([2]; hydrochloride): 2.45 µM

With `CC(C)(C)OC(=O)N1CCC[C@@H]1C#CCN1CCCC1` [(R)-2-[3-(1-Pyrrolidinyl)-1-propynyl]-1-pyrrolidine-carboxylic acid, 1,1-dimethylethyl ester] as the molecule, how does the IC50 [1] read?
Its IC50 is 6.5 µM.

What about the IC50 [2] of the same molecule?
The IC50 was 0.029 µM.

What does the source list for `COC(=O)C1=CCCN(C)C1` [arecoline]?
improvement in performance (aged monkey): significant improvement in performance; improvement in SDAT patients compared to physostigmine (SDAT patients): more-consistent improvement

For `CS(=O)(=O)N1CCC[C@@H]1C#CCN1CCCC1` [(R)-1-(Methylsulfonyl)-2-[3-(1-pyrrolidinyl)-1-propynyl]pyrrolidine], which IC50 [1] is on record?
The IC50 was 23 µM.

What about the IC50 [2] of the same molecule?
The IC50 was 0.973 µM.

Which IC50 ([1]; dihydrochloride) does the source give for `C(#C[C@H]1CCCN1)CN1CCCC1` [(R)-1-[3-(2-Pyrrolidinyl)-2-propynyl] pyrrolidine, dihydrochloride] here?
Its IC50 is 2.7 µM.

What about the IC50 ([2]; dihydrochloride) of the same molecule?
Its IC50 is 0.742 µM.

With `O=C(N1CCC[C@@H]1C#CCN1CCCC1)C(F)(F)F` [(R)-2-[3-(1-Pyrrolidinyl)-1-propynyl]-1-(trifluoroacetyl)pyrrolidine, dihydrochloride] as the molecule, how does the IC50 ([1]; dihydrochloride) read?
The IC50 was 43 µM.

What about the IC50 ([2]; dihydrochloride) of the same molecule?
Its IC50 is 8.57 µM.

With `CC(=O)N1CCC[C@@H]1C#CCN1CCCC1` [(R)-1-Acetyl-2-[3-(1-pyrrolidinyl)-1-propynyl]pyrrolidine] as the molecule, how does the IC50 [1] read?
The IC50 was 8.8 µM.

What about the IC50 [2] of the same molecule?
The IC50 was 0.78 µM.

With `O=C(N1CCC[C@@H]1C#CCN1CCCC1)C(F)(F)F` [(R)-2-[3-(1-Pyrrolidinyl)-1-propynyl]-1-(trifluoroacetyl)pyrrolidine] as the molecule, how does the IC50 [1] read?
The IC50 was 40 µM.

And the IC50 [2]?
The IC50 was 2.58 µM.

Which results are given for `CC(=O)N(C)C(C)C#CCN1CCCC1` (stereo not drawn) [BM-5, N-methyl-N-(1-methyl-4-pyrrolidino-2-butynyl)acetamide]?
antagonist/agonist action at muscarinic sites (muscarinic sites): antagonist at some muscarinic sites while being an agonist at most others; presynaptic cholinergic action (presynaptic cholinergic): presynaptic cholinergic antagonist; postsynaptic cholinergic action (postsynaptic cholinergic): postsynaptic partial cholinergic agonist
